Test results taken from publication PMC12090182, “Repurposing of the RIPK1-Selective Benzo[1,4]oxazepin-4-one Scaffold for the Development of a Type III LIMK1/2 Inhibitor” (ACS Chemical Biology, 2025).

How the values were obtained:
Test in all cases: biochemical
Format in all cases: binding
[1] = target: 468 kinases including some pathogenic mutants (Homo sapiens, UniProt Q7L7X3); details: TAOK1 (Entrez TAOK1), 1000 nM; read-out: Percent Control
[2] = target: 468 kinases including some pathogenic mutants (Homo sapiens, UniProt Q12851); details: MAP4K2 (Entrez MAP4K2), 100 nM; read-out: Percent Control
[3] = target: 468 kinases including some pathogenic mutants (Homo sapiens, UniProt Q9HC98); details: NEK6 (Entrez NEK6), 1000 nM; read-out: Percent Control
[4] = target: 468 kinases including some pathogenic mutants (Homo sapiens, UniProt Q32MK0); details: MLCK (Entrez MYLK3), 100 nM; read-out: Percent Control
468 kinases including some pathogenic mutants (Homo sapiens, UniProt Q32MK0), sequence (Q32MK0 whole entry, change not shown): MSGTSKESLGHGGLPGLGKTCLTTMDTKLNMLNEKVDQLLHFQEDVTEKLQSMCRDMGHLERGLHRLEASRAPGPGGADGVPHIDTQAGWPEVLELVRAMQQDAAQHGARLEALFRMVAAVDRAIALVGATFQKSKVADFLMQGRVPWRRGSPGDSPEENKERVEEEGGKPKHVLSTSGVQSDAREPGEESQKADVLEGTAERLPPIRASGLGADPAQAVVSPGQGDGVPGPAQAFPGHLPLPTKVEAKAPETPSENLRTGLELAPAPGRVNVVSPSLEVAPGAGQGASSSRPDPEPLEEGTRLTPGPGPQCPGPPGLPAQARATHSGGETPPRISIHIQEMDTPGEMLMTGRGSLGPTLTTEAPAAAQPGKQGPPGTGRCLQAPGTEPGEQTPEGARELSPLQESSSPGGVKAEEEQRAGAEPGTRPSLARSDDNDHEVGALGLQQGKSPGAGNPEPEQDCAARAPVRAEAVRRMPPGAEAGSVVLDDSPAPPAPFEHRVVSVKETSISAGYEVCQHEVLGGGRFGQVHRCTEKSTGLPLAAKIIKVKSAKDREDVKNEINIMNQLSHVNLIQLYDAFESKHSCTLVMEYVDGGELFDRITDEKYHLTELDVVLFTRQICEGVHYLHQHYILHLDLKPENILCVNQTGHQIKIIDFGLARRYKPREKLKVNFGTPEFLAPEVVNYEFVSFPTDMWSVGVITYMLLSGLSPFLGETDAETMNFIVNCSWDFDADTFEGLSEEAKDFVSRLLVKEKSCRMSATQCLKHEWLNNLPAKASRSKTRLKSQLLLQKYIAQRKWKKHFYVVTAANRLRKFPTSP

[5] = target: 468 kinases including some pathogenic mutants (Homo sapiens, UniProt Q9UL54); details: TAOK2 (Entrez TAOK2), 100 nM; read-out: Percent Control
[6] = target: 468 kinases including some pathogenic mutants (Homo sapiens, UniProt Q8NE63); details: HIPK4 (Entrez HIPK4), 100 nM; read-out: Percent Control
468 kinases including some pathogenic mutants (Homo sapiens, UniProt Q8NE63), sequence (Q8NE63 whole entry, change not shown): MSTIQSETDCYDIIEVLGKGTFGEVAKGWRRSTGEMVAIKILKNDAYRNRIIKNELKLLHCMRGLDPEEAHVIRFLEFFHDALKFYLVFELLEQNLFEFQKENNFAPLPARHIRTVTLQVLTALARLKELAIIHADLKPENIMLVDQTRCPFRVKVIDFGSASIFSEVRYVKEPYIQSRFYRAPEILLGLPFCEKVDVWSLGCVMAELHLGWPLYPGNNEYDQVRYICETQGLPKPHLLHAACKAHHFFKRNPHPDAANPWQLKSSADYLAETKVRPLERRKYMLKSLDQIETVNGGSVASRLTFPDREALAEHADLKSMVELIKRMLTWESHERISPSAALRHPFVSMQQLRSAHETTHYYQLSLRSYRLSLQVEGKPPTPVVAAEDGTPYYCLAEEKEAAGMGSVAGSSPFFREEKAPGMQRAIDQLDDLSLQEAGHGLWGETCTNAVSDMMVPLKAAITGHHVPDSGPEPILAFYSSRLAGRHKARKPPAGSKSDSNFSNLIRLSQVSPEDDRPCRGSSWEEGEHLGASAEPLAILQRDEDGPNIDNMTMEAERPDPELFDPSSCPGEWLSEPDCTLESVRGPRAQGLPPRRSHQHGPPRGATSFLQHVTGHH

[7] = target: 468 kinases including some pathogenic mutants (Homo sapiens, UniProt P31152); details: ERK4 (Entrez MAPK4), 100 nM; read-out: Percent Control
[8] = target: 468 kinases including some pathogenic mutants (Homo sapiens, UniProt P12931); details: SRC (Entrez SRC), 1000 nM; read-out: Percent Control
[9] = target: 468 kinases including some pathogenic mutants (Homo sapiens, UniProt P42336, E545K); details: read-out: Percent Control
[10] = target: 468 kinases including some pathogenic mutants (Homo sapiens, UniProt Q8NEV4); details: MYO3A (Entrez MYO3A), 100 nM; read-out: Percent Control
[11] = target: 468 kinases including some pathogenic mutants (Homo sapiens, UniProt O43318); details: TAK1 (Entrez MAP3K7), 100 nM; read-out: Percent Control
[12] = target: 468 kinases including some pathogenic mutants (Homo sapiens, UniProt P24723); details: PRKCH (Entrez PRKCH), 1000 nM; read-out: Percent Control
[13] = target: 468 kinases including some pathogenic mutants (Homo sapiens, UniProt P33981); details: TTK (Entrez TTK), 100 nM; read-out: Percent Control
[14] = target: 468 kinases including some pathogenic mutants (Homo sapiens, UniProt Q8N5S9); details: CAMKK1 (Entrez CAMKK1), 100 nM; read-out: Percent Control
[15] = target: 468 kinases including some pathogenic mutants (Homo sapiens, UniProt Q86Y07); details: VRK2 (Entrez VRK2), 1000 nM; read-out: Percent Control
[16] = target: 468 kinases including some pathogenic mutants (Homo sapiens, UniProt Q86Z02); details: HIPK1 (Entrez HIPK1), 100 nM; read-out: Percent Control
[17] = target: 468 kinases including some pathogenic mutants (Homo sapiens, UniProt O43683); details: BUB1 (Entrez BUB1), 100 nM; read-out: Percent Control
468 kinases including some pathogenic mutants (Homo sapiens, UniProt O43683), sequence (O43683 whole entry, change not shown): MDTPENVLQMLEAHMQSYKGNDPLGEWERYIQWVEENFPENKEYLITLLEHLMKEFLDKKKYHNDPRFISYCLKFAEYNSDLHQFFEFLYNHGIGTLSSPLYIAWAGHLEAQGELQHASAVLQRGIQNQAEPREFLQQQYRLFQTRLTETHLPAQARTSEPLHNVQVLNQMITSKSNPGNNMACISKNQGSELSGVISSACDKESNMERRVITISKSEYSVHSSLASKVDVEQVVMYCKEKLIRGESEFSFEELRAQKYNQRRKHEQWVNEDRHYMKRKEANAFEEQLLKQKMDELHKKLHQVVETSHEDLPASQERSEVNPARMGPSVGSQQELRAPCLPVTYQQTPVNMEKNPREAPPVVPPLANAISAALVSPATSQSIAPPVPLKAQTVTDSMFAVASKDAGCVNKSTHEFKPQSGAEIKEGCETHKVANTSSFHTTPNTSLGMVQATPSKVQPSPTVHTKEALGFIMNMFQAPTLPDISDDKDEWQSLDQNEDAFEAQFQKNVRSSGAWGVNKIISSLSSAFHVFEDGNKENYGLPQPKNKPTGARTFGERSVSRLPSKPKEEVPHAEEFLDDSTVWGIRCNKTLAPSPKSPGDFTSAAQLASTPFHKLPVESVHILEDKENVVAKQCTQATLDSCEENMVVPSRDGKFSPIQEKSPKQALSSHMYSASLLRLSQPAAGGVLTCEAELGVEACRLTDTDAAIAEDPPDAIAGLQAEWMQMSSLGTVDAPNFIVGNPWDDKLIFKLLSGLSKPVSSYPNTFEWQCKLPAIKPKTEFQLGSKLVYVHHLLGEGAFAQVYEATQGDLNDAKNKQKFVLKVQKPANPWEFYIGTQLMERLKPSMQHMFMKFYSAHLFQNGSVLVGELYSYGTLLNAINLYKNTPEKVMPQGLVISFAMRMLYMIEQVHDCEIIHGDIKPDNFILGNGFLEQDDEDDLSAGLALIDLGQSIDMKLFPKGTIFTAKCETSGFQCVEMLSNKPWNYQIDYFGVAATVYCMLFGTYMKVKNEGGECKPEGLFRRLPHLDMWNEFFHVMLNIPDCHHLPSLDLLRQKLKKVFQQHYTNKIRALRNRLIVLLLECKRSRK

[18] = target: 468 kinases including some pathogenic mutants (Homo sapiens, UniProt P29597); details: read-out: Percent Control
468 kinases including some pathogenic mutants (Homo sapiens, UniProt P29597), sequence (P29597 whole entry, change not shown): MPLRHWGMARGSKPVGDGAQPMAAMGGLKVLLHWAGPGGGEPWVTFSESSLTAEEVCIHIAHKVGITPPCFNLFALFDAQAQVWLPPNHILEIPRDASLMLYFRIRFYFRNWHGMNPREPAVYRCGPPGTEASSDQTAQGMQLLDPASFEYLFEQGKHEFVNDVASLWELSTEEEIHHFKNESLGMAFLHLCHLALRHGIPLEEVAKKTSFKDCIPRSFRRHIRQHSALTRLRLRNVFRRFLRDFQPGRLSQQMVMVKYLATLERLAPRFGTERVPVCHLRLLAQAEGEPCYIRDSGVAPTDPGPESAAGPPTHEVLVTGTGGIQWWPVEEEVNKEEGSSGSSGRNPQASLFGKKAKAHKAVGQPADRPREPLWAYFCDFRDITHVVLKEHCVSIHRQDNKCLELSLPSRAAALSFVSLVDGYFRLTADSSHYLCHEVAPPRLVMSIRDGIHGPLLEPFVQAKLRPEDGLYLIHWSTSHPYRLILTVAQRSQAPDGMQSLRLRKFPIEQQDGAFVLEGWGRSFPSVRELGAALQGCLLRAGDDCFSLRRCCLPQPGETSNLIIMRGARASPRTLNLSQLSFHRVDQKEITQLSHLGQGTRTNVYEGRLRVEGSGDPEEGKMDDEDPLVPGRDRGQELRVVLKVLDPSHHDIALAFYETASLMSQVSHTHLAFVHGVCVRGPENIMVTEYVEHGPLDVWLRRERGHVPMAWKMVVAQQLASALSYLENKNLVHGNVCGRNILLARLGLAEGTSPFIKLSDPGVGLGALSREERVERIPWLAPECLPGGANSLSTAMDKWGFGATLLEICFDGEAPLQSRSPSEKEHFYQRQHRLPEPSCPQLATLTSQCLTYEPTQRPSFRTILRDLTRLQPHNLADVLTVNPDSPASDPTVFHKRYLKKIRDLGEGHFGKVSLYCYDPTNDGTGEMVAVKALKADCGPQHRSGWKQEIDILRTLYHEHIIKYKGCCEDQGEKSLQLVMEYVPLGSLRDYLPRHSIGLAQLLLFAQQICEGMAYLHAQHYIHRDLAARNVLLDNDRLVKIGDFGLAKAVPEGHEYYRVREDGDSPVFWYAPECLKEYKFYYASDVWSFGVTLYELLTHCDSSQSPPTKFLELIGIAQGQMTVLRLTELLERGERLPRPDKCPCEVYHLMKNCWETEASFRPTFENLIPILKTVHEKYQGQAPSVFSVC

[19] = target: 468 kinases including some pathogenic mutants (Homo sapiens, UniProt P53778); details: p38-gamma (Entrez MAPK12), 100 nM; read-out: Percent Control
[20] = target: 468 kinases including some pathogenic mutants (Homo sapiens, UniProt Q9HBH9); details: MKNK2 (Entrez MKNK2), 1000 nM; read-out: Percent Control
[21] = target: 468 kinases including some pathogenic mutants (Homo sapiens, UniProt P00519, Y253F); details: read-out: Percent Control
[22] = target: 468 kinases including some pathogenic mutants (Homo sapiens, UniProt Q9NWZ3); details: IRAK4 (Entrez IRAK4), 1000 nM; read-out: Percent Control
[23] = target: 468 kinases including some pathogenic mutants (Homo sapiens, UniProt O94768); details: DRAK2 (Entrez STK17B), 100 nM; read-out: Percent Control
468 kinases including some pathogenic mutants (Homo sapiens, UniProt O94768), sequence (O94768 whole entry, change not shown): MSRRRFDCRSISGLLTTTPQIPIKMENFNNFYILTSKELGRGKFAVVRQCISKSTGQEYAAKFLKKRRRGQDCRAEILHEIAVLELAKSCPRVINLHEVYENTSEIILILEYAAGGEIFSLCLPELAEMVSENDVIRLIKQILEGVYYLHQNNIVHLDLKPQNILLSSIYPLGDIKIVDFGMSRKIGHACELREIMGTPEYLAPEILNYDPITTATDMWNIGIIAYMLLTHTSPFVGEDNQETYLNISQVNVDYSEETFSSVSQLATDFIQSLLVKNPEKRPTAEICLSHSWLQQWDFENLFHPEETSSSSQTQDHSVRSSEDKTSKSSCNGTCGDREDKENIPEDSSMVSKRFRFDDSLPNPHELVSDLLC

[24] = target: 468 kinases including some pathogenic mutants (Homo sapiens, UniProt Q15569); details: TESK1 (Entrez TESK1), 100 nM; read-out: Percent Control
[25] = target: 468 kinases including some pathogenic mutants (Homo sapiens, UniProt Q8WXR4); details: MYO3B (Entrez MYO3B), 100 nM; read-out: Percent Control
[26] = target: 468 kinases including some pathogenic mutants (Homo sapiens, UniProt Q02779); details: MLK2 (Entrez MAP3K10), 100 nM; read-out: Percent Control
[27] = target: 468 kinases including some pathogenic mutants (Homo sapiens, UniProt P29376); details: LTK (Entrez LTK), 100 nM; read-out: Percent Control
[28] = target: 468 kinases including some pathogenic mutants (Homo sapiens, UniProt P29323); details: EPHB2 (Entrez EPHB2), 100 nM; read-out: Percent Control

468 kinases including some pathogenic mutants (Homo sapiens, UniProt Q7L7X3), sequence (Q7L7X3 whole entry, change not shown): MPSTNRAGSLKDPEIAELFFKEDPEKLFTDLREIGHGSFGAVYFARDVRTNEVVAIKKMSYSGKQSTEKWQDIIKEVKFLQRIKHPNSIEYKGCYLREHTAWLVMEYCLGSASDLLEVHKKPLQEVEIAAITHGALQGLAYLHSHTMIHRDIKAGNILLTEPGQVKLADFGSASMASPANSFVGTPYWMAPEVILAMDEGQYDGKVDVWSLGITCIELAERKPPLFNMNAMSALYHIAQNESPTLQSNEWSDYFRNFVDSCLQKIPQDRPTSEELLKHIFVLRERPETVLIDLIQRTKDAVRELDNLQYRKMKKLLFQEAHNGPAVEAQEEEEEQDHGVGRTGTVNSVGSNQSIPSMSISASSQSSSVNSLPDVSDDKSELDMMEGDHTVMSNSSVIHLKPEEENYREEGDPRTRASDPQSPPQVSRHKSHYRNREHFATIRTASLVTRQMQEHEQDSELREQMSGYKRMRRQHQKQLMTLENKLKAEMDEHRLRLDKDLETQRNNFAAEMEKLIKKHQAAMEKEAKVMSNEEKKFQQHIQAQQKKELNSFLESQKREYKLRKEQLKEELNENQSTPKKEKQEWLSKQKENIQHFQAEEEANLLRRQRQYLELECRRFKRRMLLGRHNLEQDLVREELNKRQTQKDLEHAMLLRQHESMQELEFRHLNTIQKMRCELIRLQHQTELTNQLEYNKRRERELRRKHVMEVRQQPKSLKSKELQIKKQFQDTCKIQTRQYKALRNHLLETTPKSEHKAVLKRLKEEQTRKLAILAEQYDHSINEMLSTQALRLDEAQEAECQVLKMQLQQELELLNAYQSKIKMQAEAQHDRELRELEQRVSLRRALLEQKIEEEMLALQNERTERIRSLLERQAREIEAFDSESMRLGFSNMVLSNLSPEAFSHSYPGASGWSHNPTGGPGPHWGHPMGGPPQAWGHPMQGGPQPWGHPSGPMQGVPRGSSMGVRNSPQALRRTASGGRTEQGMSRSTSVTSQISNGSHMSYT

CN1C(=O)[C@@H](N2CCc3c(nn(Cc4ccccc4)c3C(N)=O)C2=O)COc2cc(Cl)ccc21 [Compound 10, (S)-2-benzyl-6-(8-chloro-5-methyl-4-oxo-2,3,4,5-tetrahydrobenzo[b][1,4]oxazepin-3-yl)-7-oxo-4,5,6,7-tetrahydro-2H-pyrazolo[3,4-c]pyridine-3-carboxamide] showed a remaining activity at 1 µM [1] of 100%, a remaining activity at 0.1 µM [2] of 70% and a remaining activity at 1 µM [3] of 100%. For the same molecule, the remaining activity at 0.1 µM [4] was 91%, the remaining activity at 0.1 µM [5] was 100% and the remaining activity at 0.1 µM [6] was 73%. The remaining activity at 0.1 µM [7] was 86%, the remaining activity at 1 µM [8] was 100% and the remaining activity at 0.1 µM [9] was 75%. The remaining activity at 0.1 µM [10] was 83%, the remaining activity at 0.1 µM [11] was 100% and the remaining activity at 1 µM [12] was 100%. It also gave a remaining activity at 0.1 µM [13] of 82%, a remaining activity at 0.1 µM [14] of 70% and a remaining activity at 1 µM [15] of 100%. The remaining activity at 0.1 µM [16] was 73%, the remaining activity at 0.1 µM [17] was 84% and the remaining activity at 0.1 µM ([18]; TYK2(JH1domain-catalytic) (Entrez TYK2), 100 nM) was 72%. For the same molecule, the remaining activity at 1 µM [18] was 100%, the remaining activity at 0.1 µM [19] was 65% and the remaining activity at 1 µM [20] was 100%. For the same molecule, the remaining activity at 0.1 µM [21] was 76%, the remaining activity at 1 µM [22] was 100% and the remaining activity at 0.1 µM [23] was 84%. The remaining activity at 0.1 µM [24] was 79%, the remaining activity at 0.1 µM [25] was 97% and the remaining activity at 0.1 µM [26] was 64%. It also gave a remaining activity at 0.1 µM [27] of 54% and a remaining activity at 0.1 µM [28] of 98%.
